The source of these data is patent US11400038B2, “Synergistic antioxidant compositions” (RODAN & FIELDS, LLC, priority 2019, dated 2022).

One data set concerns Adult human fibroblasts. The data set is described as follows: Phototoxicity (PHTX): cell viability pre- and post-UVA irradiation by MTT assay (Test Method B). Format: cell-based. The conditions noted are these: for cell metabolism versus solvent control, in words: UV-irradiation assay, individual antioxidants; for PHTX Results: phototoxicity: individual antioxidant. On the procedure:
The cell viability was measured by determining the cells metabolic activity with a MTT assay according to Test Method B, the results are presented in Table 5. An MTT assay is a colorimetric assay for assessing cell metabolic activity.
Adult human fibroblasts were grown to exponential stage in a 96-well plate in DMEM and 10% FBS in humidified atmosphere, 37° C. in 5% CO2. Prior to irradiation, half of cell culture medium was replaced with PBS, treated with 0.1% test material (diluted in double distilled water), and incubated for an additional 1 hour 45 minutes. Following incubation, half of the plate was irradiated with UVA lamp UVA-28T at 5 mW/cm2 for 12 minutes, and the other half remained covered with aluminum foil. Following irradiation, PBS with test materials was replaced by fresh cell culture medium and plate was incubated for an additional 24 hours. Cell viability was then analyzed via MTT assay to quantify metabolic activity.
For orientation: Tetrazolium dyes change colour on reduction, which living cells bring about.

In data set [1] the test system is UVA-induced Reactive Oxygen Species in Human Dermal Fibroblasts. The data set is described as follows: DCFH reactive oxygen species quantification in UVA-irradiated fibroblasts (Test Method C). Format: cell-based. To be noted: individual antioxidant, + pro-oxidant. How it is done: Compositions of Ex1-Ex8 have been tested for reactive oxygen species quantification in UVA-irradiated human dermal fibroblasts. The quantification result is expressed as a percentage of the water control and determined by the Test Method C and resented in Table 6.
Adult human fibroblasts were grown in a 96 well plate in DMEM+5% FBS. At exponential growth stage, medium was replaced with PBS and cells were loaded with 10 μM DCFH-DA (2′-7′-Dichlorofluorescin diacetate). Cells were incubated for 15 minutes at 37° C., rinsed, and incubated with test materials at 1 mg/ml (0.1% w/w) for an additional 20 minutes. Following incubation, plate was irradiated at 5 mW/cm2 for 10 minutes. Measurements of DCF-originated fluorescence were taken before and after irradiation as, in the presence of free radicals, DCFH is oxidized to highly fluorescent DCF, which can be detected in living cells at ex/em 488/530 nm. Total insoluble proteins were quantified to determine effect of test materials on cell number and to standardize ROS signal to cell number using the following equation: [ΔROS signal (t10 min−t0)]\[cell number (background−corrected)]. Water was used as a negative control.

As to `O=C(/C=C/c1ccc(O)c(O)c1)O[C@H](Cc1ccc(O)c(O)c1)C(=O)O` [Rosmarinic acid, (2R)-3-(3,4-dihydroxyphenyl)-2-{[(2E)-3-(3,4-dihydroxyphenyl)prop-2-enoyl]oxy}propanoic acid], in the data set on Adult human fibroblasts, the “cell metabolism versus solvent control, in words” value is “lower cell metabolism than solvent control” and the “PHTX Results: phototoxicity” value is given as “not phototoxic”. Besides, the “DCFH Results (intracellular antioxidant): radical activity” value in data set [1] is reported as −52% radical.

`C[C@@H]1O[C@@H](OC[C@H]2O[C@@H](Oc3c(-c4ccc(O)c(O)c4)oc4cc(O)cc(O)c4c3=O)[C@H](O)[C@@H](O)[C@@H]2O)[C@H](O)[C@H](O)[C@H]1O` [Rutin, 2-(3,4-dihydroxyphenyl)-5,7-dihydroxy-3-[α-L-rhamnopyranosyl-(1→6)-β-D-glucopyranosyloxy]-4H-chromen-4-one]: in the data set with Adult human fibroblasts, the “cell metabolism versus solvent control, in words” value is recorded as “lower cell metabolism than solvent control” and the “PHTX Results: phototoxicity” value is given as “not phototoxic”. The “DCFH Results (intracellular antioxidant): radical activity” value in data set [1] is “No Activity”.
